The text below walks through data of patent US9056863B2, “Substituted 2,3,5,9,9B-pentaazacyclopenta[a]naphthalenes and uses thereof” (H. Lundbeck A/S, priority 2011, dated 2015).

By IC50 is commonly meant the concentration that gives 50% inhibition.

SMILES strings stand for the structures.

One experiment relates to rat hippocampal slices. To be noted: cited from earlier work.
The conditions of experiment [1]: mice, BSO glutathione depletion; cited from earlier work.
For experiment [2] the following is noted: aged rats; cited from earlier work.
The conditions of experiment [3]: tryptophan depletion; cited from earlier work.
For experiment [4] the following is noted: cited from earlier work.
Experiment [5] concerns primary neuronal cultures and hippocampal slices. To be noted: cited from earlier work.
For experiment [6] the following is noted: in vivo; cited from earlier work.
In a further experiment the target is human PDE2A enzyme (Homo sapiens (Human), UniProt O00408). The experiment is described as follows: PDE2A inhibition assay. The class given is biochemical. To be noted: 15 nM tritium labelled cAMP, SPA. Here is the method:
Likewise, active human PDE2A enzyme (ATCC68585) is prepared in a number of ways for use in PDE assays and procedures are well known to those skilled in the art.
A typical PDE2A assay was performed as follows: the assay was performed in 60 μL samples containing a fixed amount of the […] enzyme (sufficient to convert 20-25% of the cyclic nucleotide substrate), a buffer (50 mM HEPES pH 7.6; 10 mM MgCl2; 0.02% Tween20), 0.1 mg/ml BSA, 15 nM tritium labelled cAMP and varying amounts of inhibitors. Reactions were initiated by addition of the cyclic nucleotide substrate, and reactions were allowed to proceed for 1 h at room temperature before being terminated through mixing with 20 μL (0.2 mg) yttrium silicate SPA beads (Amersham). The beads were allowed to settle for 1 h in the dark before the plates were counted in a Wallac 1450 Microbeta counter. The measured signals were converted to activity relative to an uninhibited control (100%) and IC50 values were calculated using XlFit (model 205, IDBS).

The target in the next experiment is human PDE10A (Homo sapiens (Human), UniProt Q9Y233). The experiment is described as follows: PDE10A inhibition assay. To be noted: for PDE10 % inhibition: @ 10,000 nM. Format: biochemical. Here is the method:
Active PDE10A enzyme is prepared in a number of ways for use in PDE assays (Loughney, K. et al. Gene 1999, 234, 109-117; Fujishige, K. et al. Eur J. Biochem. 1999, 266, 1118-1127 and Soderling, S. et al. Proc. Natl. Acad. Sci. 1999, 96, 7071-7076). PDE10A can be expressed as full-length proteins or as truncated proteins, as long as they express the catalytic domain. PDE10A can be prepared in different cell types, for example insect cells or E. coli. An example of a method to obtain catalytically active PDE10A is as follows: The catalytic domain of human PDE10A (amino acids 440-779 from the sequence with accession number NP 006652) is amplified from total human brain total RNA by standard RT-PCR and is cloned into the BamH1 and XhoI sites of the pET28a vector (Novagen). Expression in coli is performed according to standard protocols. Briefly, the expression plasmids are transformed into the BL21(DE3) E. coli strain, and 50 mL cultures inoculated with the cells allowed to grow to an OD600 of 0.4-0.6 before protein expression is induced with 0.5 mM IPTG. Following induction, the cells are incubated overnight at room temperature, after which the cells are collected by centrifugation. Cells expressing PDE10A are resuspended in 12 mL (50 mM TRIS-HCl-pH8.0, 1 mM MgCl2 and protease inhibitors). The cells are lysed by sonication, and after all cells are lysed, TritonX100 is added according to Novagen protocols.
A typical PDE10A assay was performed as follows: the assay was performed in 60 μL samples containing a fixed amount of the […] enzyme (sufficient to convert 20-25% of the cyclic nucleotide substrate), a buffer (50 mM HEPES pH 7.6; 10 mM MgCl2; 0.02% Tween20), 10 nM tritium labelled cAMP and varying amounts of inhibitors. […] The beads were allowed to settle for 1 h in the dark before the plates were counted in a Wallac 1450 Microbeta counter. The measured signals were converted to activity relative to an uninhibited control (100%) and IC50 values were calculated using XlFit (model 205, IDBS).

The conditions of experiment [7]: cited from earlier work. This is another data set of the same source.
The conditions of experiment [8]: rats, subchronic phencyclidine; cited from earlier work.
For experiment [9] the following is noted: rats; cited from earlier work.

Chain of human PDE10A (Q9Y233 716-1055): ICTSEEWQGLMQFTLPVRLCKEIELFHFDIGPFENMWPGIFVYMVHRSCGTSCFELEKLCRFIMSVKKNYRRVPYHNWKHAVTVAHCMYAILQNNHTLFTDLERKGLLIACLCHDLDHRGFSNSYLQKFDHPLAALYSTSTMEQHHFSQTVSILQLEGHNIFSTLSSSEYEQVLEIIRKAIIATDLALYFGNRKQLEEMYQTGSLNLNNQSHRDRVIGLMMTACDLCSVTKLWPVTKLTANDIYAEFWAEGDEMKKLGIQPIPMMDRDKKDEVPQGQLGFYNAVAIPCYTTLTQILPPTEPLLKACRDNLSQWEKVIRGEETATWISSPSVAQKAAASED
Chain of human PDE2A enzyme (O00408 whole entry): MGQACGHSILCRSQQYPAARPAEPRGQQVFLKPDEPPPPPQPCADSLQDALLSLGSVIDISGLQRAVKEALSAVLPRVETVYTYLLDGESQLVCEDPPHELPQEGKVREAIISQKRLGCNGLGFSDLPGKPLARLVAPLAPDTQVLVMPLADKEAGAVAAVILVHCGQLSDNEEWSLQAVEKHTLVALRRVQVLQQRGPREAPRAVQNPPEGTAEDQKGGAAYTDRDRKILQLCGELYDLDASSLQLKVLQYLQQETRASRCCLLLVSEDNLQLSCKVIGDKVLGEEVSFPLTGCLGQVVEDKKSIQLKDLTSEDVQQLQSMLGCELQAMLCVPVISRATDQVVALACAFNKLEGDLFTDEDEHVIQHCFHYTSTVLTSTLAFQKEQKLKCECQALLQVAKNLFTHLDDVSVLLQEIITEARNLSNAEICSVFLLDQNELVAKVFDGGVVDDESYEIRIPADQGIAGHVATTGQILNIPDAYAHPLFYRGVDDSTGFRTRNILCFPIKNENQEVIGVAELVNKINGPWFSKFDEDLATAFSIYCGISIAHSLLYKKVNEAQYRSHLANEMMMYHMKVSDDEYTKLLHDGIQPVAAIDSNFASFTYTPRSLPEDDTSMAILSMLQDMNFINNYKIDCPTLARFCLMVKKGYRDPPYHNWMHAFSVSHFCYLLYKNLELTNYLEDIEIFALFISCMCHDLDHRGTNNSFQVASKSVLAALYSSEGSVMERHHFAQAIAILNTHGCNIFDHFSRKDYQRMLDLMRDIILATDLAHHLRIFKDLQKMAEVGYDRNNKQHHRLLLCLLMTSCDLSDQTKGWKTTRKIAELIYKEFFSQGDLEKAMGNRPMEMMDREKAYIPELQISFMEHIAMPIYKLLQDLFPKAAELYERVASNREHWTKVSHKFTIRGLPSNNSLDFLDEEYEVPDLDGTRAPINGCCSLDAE

For `COc1ccc(Cc2nn3c([C@@H](CCCc4ccccc4)[C@@H](C)O)nc(C)c3c(=O)[nH]2)cc1OC` [Bay 60-7550], the “long term potentiation (LTP) induction” value with rat hippocampal slices is recorded as “increases long term potentiation (LTP) induction”. For the same compound, the anxiety-like behaviours result in experiment [1] was “reversed”. Moreover, the object recognition entry in experiment [2] is “beneficial effect”. For the same compound, the “deficit in object recognition” value in experiment [3] is listed as “reverse the deficit in object recognition”. For the same compound, the “anxiogenic effects of restraint stress on behaviour” value (“anxiogenic effects” below) in experiment [4] was “antagonized the anxiogenic effects”. In addition, the cGMP result in experiment [5] is listed as “preferentially increases cGMP”. Also, the “activity in novel object and social recognition tasks” value in [6] was “active”.

`Cc1cccc(Cl)c1-c1nnc2c(C)nc3ncccc3n12` [Example Ia2, 1-(2-Chloro-6-methyl-phenyl)-4-methyl-2,3,5,6,9b-pentaaza-cyclopenta[a]naphthalene] returned an IC50 at human PDE2A enzyme of 0.504 µM. The same compound gave a PDE10 % inhibition at human PDE10A of 48% inhibition.

At human PDE2A enzyme, `Cc1nc2cnccc2n2c(-c3ccccc3Cl)nnc12` [Example Ib1, 1-(2-Chloro-phenyl)-4-methyl-2,3,5,7,9b-pentaaza-cyclopenta[a]naphthalene] returned an IC50 of 0.471 µM. Further, at human PDE10A, the PDE10 % inhibition came out at 68% inhibition.

Turning to `Cc1nc2ccncc2n2c(-c3ccccc3Cl)nnc12` [Example Ic1, 1-(2-Chloro-phenyl)-4-methyl-2,3,5,8,9b-pentaaza-cyclopenta[a]naphthalene], the IC50 on human PDE10A (10 nM tritium labelled cAMP, SPA, read-out: PDE10 IC50) was found to be 1.76 µM.

Consider `COc1cc2c(cc1-c1ccccc1)C(c1cccc(C(N)=O)c1)=NCC(=O)N2C` [ND7001], for which the “anxiogenic effects” value in experiment [4] was “antagonized the anxiogenic effects”.

Consider `NCCN(CCN)/[N+]([O-])=N/O` [detanonoate], for which the “anxiogenic effects” value in [4] is on record as “antagonized the anxiogenic effects”.

In the case of `O=C(CCCN1CCC(O)(c2ccc(Cl)cc2)CC1)c1ccc(F)cc1` [haloperidol], in [7] (patients), the cGMP levels result was “increased”. Besides, the cAMP levels result in [7] (rats) is recorded as “increased”.

Take `COc1ccc(Cc2nccc3cc(OC)c(OC)cc23)cc1OC` [papaverine]: the attentional set-shifting deficits result in [8] is reported as “reverses attentional set-shifting deficits”. In addition, in experiment [9], the apomorphine-induced stereotypies entry is listed as “reduces apomorphine-induced stereotypies”, the “dopamine concentration in rat brain” value is listed as “reducing dopamine concentration” and the haloperidol-induced catalepsy result is given as “increases haloperidol-induced catalepsy”.
